Our source for the IC50 values is BindingDB's records for doi:10.1016/j.bmcl.2003.08.049 (Merck Research Laboratories, 2003).

The assay concerns the target T1, Dimer of Gag-Pol polyprotein [489-587,Q496K] (Human immunodeficiency virus 1, UniProt P12497, Q496K).
T1 construct: 489-587
The assay can be described thus: Protease Inhibition Assay. The conditions noted are these: pH 5.5; 30 °C. The protocol:
Assay of HIV protease inhibition was performed by peptide cleavage using the substrate Val-Ser-Gln-Asn-beta-naphthylalanine*Pro-Ile-Val. Products of the cleavage reaction were quantified by HPLC detection, and data were fit to nonlinear least squares equations for determination of steady-state Michaelis-Menten kinetics.

SMILES strings stand for the structures.

In general, IC50 refers to the concentration at which inhibition is half-maximal. Higher therefore signals a need for much substance. For the compound `O=C(N[C@H]1c2ccccc2OC[C@H]1O)[C@H](Cc1cccnc1)C[C@H](O)CN1CCN(Cc2ccc(-c3ccccc3)o2)C[C@H]1C(=O)NCC(F)(F)F` [(2S)-1-[(2S,4R)-2-hydroxy-4-{[(3S,4S)-3-hydroxy-3,4-dihydro-2H-1-benzopyran-4-yl]carbamoyl}-4-(pyridin-3-ylmethyl)butyl]-4-[(5-phenylfuran-2-yl)methyl]-N-(2,2,2-trifluoroethyl)piperazine-2-carboxamide], the IC50 amounted to 0.02 nM.
